Laboratory results published in patent US20080188481A1 (priority 2002, published 2008).

system: HIV-1 single-round infectious reporter virus; assay: Single-round infectious HIV-1 luciferase reporter virus infection of HeLa CD4 cells (antiviral EC50); format: cell-based; conditions: Human immunodeficiency virus 1, HeLa, 72 h, read-out: EC50 Group from Table 1
Description: • Virus production—Human embryonic Kidney cell line, 293T, was propagated in Dulbecco's Modified Eagle Medium (Invitrogen, Carlsbad, Calif.) containing 10% fetal Bovine serum (FBS, Sigma, St. Louis, Mo.). • Virus infection—Human epithelial cell line, HeLa, expressing the HIV-1 receptor CD4 was propagated in Dulbecco's Modified Eagle Medium (Invitrogen, Carlsbad, Calif.) containing 10% fetal Bovine serum (FBS, Sigma, St. Louis, Mo.) and supplemented with 0.2 mg/mL Geneticin (Invitrogen, Carlsbad, Calif.). Virus-Single-round infectious reporter virus was produced by co-transfecting human embryonic Kidney 293 cells with an HIV-1 envelope DNA expression vector and a proviral cDNA containing an envelope deletion mutation and the luciferase reporter gene inserted in place of HIV-1 nef sequences (Chen et al, Ref. 41). Transfections were performed using lipofectAMINE PLUS reagent as described by the manufacturer (Invitrogen, Carlsbad, Calif.).
• 1. HeLa CD4 cells were plated in 96 well plates at a cell density of 1×10^4 cells per well in 100 μl Dulbecco's Modified Eagle Medium containing 10% fetal Bovine serum and incubated overnight. • 2. Compound was added in a 2 μl dimethylsulfoxide solution, so that the final assay concentration would be ≦10 μM. • 3. 100 μl of single-round infectious reporter virus in Dulbecco's Modified Eagle Medium was then added to the plated cells and compound at an approximate multiplicity of infection (MOI) of 0.01, resulting in a final volume of 200 μl per well. • 4. Virally-infected cells were incubated at 37 degrees Celsius, in a CO2 incubator, and harvested 72 h after infection. • 5. Viral infection was monitored by measuring luciferase expression from viral DNA in the infected cells using a luciferase reporter gene assay kit, as described by the manufacturer (Roche Molecular Biochemicals, Indianapolis, Ind.). Infected cell supernatants were removed and 50 μl of lysis buffer was added per well. After 15 minutes, 50 μl of freshly-reconstituted luciferase assay reagent was added per well. Luciferase activity was then quantified by measuring luminescence using a Wallac microbeta scintillation counter. • 6. The percent inhibition for each compound was calculated by quantifying the level of luciferase expression in cells infected in the presence of each compound as a percentage of that observed for cells infected in the absence of compound and subtracting such a determined value from 100. • 7. An EC50 provides a method for comparing the antiviral potency of the compounds of this invention. The effective concentration for fifty percent inhibition (EC50) was calculated with the Microsoft Excel Xlfit curve fitting software. For each compound, curves were generated from percent inhibition calculated at 10 different concentrations by using a four paramenter logistic model (model 205). Table 1 is the key for the data in Table 2.

SMILES	EC50
COc1cnc(-c2cnccn2)c2[nH]cc(C(=O)C(=O)N3CCC(=C(c4ccccc4)c4cccnc4)CC3)c12 [Example 71, 1-[4-(1-Phenyl-1-(pyridin-3-yl)-methylene)-piperidin-1-yl]-2-(4-methoxy-7-pyrazinyl-6-azaindol-3-yl)-ethane-1,2-dione]	< 1000 nM
CCc1nnc(C(=C2CCN(C(=O)C(=O)c3c[nH]c4c(-n5ccnn5)ncc(OC)c34)CC2)c2ccccc2)o1 [Example 74, 1-[4-(1-Phenyl-1-(5-ethyl-1,3,4-oxadiazol-2-yl)-methylene)-piperidin-1-yl]-2-[4-methoxy-7-(1,2,3-triazol-1-yl)-6-azaindol-3-yl]-ethane-1,2-dione]	< 1000 nM
O=C(C(=O)N1CCC(=C(c2ccccc2)c2ccccc2)CC1)c1c[nH]c2ccccc12 [Example 4]	1000 to 5000 nM
COc1cnc(-n2ccc(C)n2)c2[nH]cc(C(=O)C(=O)N3CCC(=C(c4ccccc4)c4nccs4)CC3)c12 [Example 95]	< 1000 nM
COc1ncc(OC)c2c(C(=O)C(=O)N3CCC(=C(C#N)c4cncs4)CC3)c[nH]c12 [Example 124, 1-[4-(1-Cyano-1-thiazol-5-yl-methylene)-piperidin-1-yl]-2-(4,7-dimethoxy-6-azaindol-3-yl)-ethane-1,2-dione]	< 1000 nM
COc1cnc(-n2ccc(C)n2)c2[nH]cc(C(=O)C(=O)N3CCC(=C(c4ccccc4)c4ccc(F)cc4)CC3)c12 [Example 97]	< 1000 nM
Cc1nnc(C(=C2CCN(C(=O)C(=O)c3c[nH]c4c(Cl)ccnc34)CC2)c2ccccc2)o1 [Example 108, 1-(7-Chloro-1H-pyrrolo[3,2-b]pyridin-3-yl)-2-{4-[(5-methyl-[1,3,4]oxadiazol-2-yl)-phenyl-methylene]-piperidin-1-yl}-ethane-1,2-dione]	< 1000 nM
COc1cnc(-c2nnc(C)[nH]2)c2[nH]cc(C(=O)C(=O)N3CCC(=C(c4ccccc4)c4nnc(C)o4)CC3)c12 [Example 139, 1-[4-(1-Phenyl-1-(5-methyl-1,3,4-oxadiazol-2-yl)-methylene)-piperidin-1-yl]-2-(4-methoxy-7-(5-methyl-1,3,4-triazol-2-yl)-6-azaindol-3-yl)-ethane-1,2-dione]	< 1000 nM
O=C(C(=O)N1CCC(=C(c2ccccc2)c2cc(F)cc(F)c2)CC1)c1c[nH]c2c(Cl)ccnc12 [Example 109, 1-(7-Chloro-1H-pyrrolo[3,2-b]pyridin-3-yl)-2-{4-[(3,5-difluoro-phenyl)-phenyl-methylene]-piperidin-1-yl}-ethane-1,2-dione]	< 1000 nM
COc1ncc(OC)c2c(C(=O)C(=O)N3CCC(=C(C#N)c4nc5ccccc5s4)CC3)c[nH]c12 [Example 123, 1-[4-(1-Cyano-1-benzothiazol-2-yl-methylene)-piperidin-1-yl]-2-(4,7-dimethoxy-6-azaindol-3-yl)-ethane-1,2-dione]	> 5000 nM
COc1ncc(OC)c2c(C(=O)C(=O)N3CCC(=Cc4ccccc4)CC3)c[nH]c12 [Example 13]	> 5000 nM
COc1cnc(-n2ccnn2)c2[nH]cc(C(=O)C(=O)N3CCC(=C(c4ccccc4)c4nnco4)CC3)c12 [Example 132, 1-[4-(1-Phenyl-1-(1,3,4-oxadiazol-2-yl)-methylene)-piperidin-1-yl]-2-[4-methoxy-7-(1,2,3-triazol-1-yl)-6-azaindol-3-yl]-ethane-1,2-dione]	< 1000 nM
COc1cnc(-n2cnc(C)n2)c2[nH]cc(C(=O)C(=O)N3CCC(=C(c4ccccc4)c4nnc(O)o4)CC3)c12 [Example 83, 1-[4-(1-Phenyl-1-(5-hydroxy-1,3,4-oxadiazol-2-yl)-methylene)-piperidin-1-yl]-2-[4-methoxy-7-(3-methyl-1,2,4-triazol-1-yl)-6-azaindol-3-yl]-ethane-1,2-dione]	< 1000 nM
COc1ncc(OC)c2c(C(=O)C(=O)N3CCC(=C(c4ccccc4)c4ccccc4)CC3)c[nH]c12 [Example 57]	< 1000 nM
COc1ncc(OC)c2c(C(=O)C(=O)N3CCC(=C(C#N)c4c(C)sc(C)c4C)CC3)c[nH]c12 [Example 125, 1-[4-(1-Cyano-1-(2,3,5-trimethylthien-4-yl)-methylene)-piperidin-1-yl]-2-(4,7-dimethoxy-6-azaindol-3-yl)-ethane-1,2-dione]	> 5000 nM
COc1cnc(-c2cnccn2)c2[nH]cc(C(=O)C(=O)N3CCC(=C(c4ccccc4)c4ccc(F)cc4)CC3)c12 [Example 93]	< 1000 nM
COc1ncc(OC)c2c(C(=O)C(=O)N3CCC(=C(c4ccccc4)S(C)(=O)=O)CC3)c[nH]c12 [Example 12]	1000 to 5000 nM
COc1ncc(OC)c2c(C(=O)C(=O)N3CCC(=C(C#CC(=O)O)c4ccccc4)CC3)c[nH]c12 [Example 119, 1-[4-(1-Phenyl-1-(2-carboxyethyn-1-yl)-methylene)-piperidin-1-yl]-2-(4,7-dimethoxy-6-azaindol-3-yl)-ethane-1,2-dione]	< 1000 nM
COc1cnc(-c2cnccn2)c2[nH]cc(C(=O)C(=O)N3CCC(=C(c4ccccc4)c4csc(C)n4)CC3)c12 [Example 91]	< 1000 nM
COc1cnc(-c2cnccn2)c2[nH]cc(C(=O)C(=O)N3CCC(=C(Br)c4ccccc4)CC3)c12 [Example 89]	< 1000 nM
COc1ncc(OC)c2c(C(=O)C(=O)N3CCC(=C(C#N)c4ccsc4)CC3)c[nH]c12 [Example 126, 1-[4-(1-Cyano-1-thien-3-yl-methylene)-piperidin-1-yl]-2-(4,7-dimethoxy-6-azaindol-3-yl)-ethane-1,2-dione]	< 1000 nM
COc1cnc(-n2cnc(C)n2)c2[nH]cc(C(=O)C(=O)N3CCC(=C(c4ccccc4)c4nnc(C5CC5)o4)CC3)c12 [Example 82, 1-[4-(1-Phenyl-1-(5-cyclopropyl-1,3,4-oxadiazol-2-yl)-methylene)-piperidin-1-yl]-2-[4-methoxy-7-(3-methyl-1,2,4-triazol-1-yl)-6-azaindol-3-yl]-ethane-1,2-dione]	< 1000 nM
COc1ncc(OC)c2c(C(=O)C(=O)N3CCC(=C(C)c4ccccc4)CC3)c[nH]c12 [Example 8]	< 1000 nM
COc1cnc(-n2cnc(C)n2)c2[nH]cc(C(=O)C(=O)N3CCC(=C(c4ccccc4)c4cn(C)cn4)CC3)c12 [Example 136, 1-[4-(1-Phenyl-1-(1-methylimidazol-4-yl)-methylene)-piperidin-1-yl]-2-(4-methoxy-7-(3-methyl-1,2,4-triazol-1-yl)-6-azaindol-3-yl)-ethane-1,2-dione]	< 1000 nM
C=C(C)c1nnc(C(=C2CCN(C(=O)C(=O)c3c[nH]c4c(-n5cnc(C)n5)ncc(OC)c34)CC2)c2ccccc2)o1 [Example 130, 1-[4-(1-Phenyl-1-(5-isopropenyl-1,3,4-oxadiazol-2-yl)-methylene)-piperidin-1-yl]-2-[4-methoxy-7-(3-methyl-1,2,4-triazol-1-yl)-6-azaindol-3-yl]-ethane-1,2-dione]	< 1000 nM
COc1cnc(-c2cnccn2)c2[nH]cc(C(=O)C(=O)N3CCC(=C(c4ccccc4)c4nnc(C)o4)CC3)c12 [Example 72, 1-[4-(1-Phenyl-1-(5-methyl-1,3,4-oxadiazol-2-yl)-methylene)-piperidin-1-yl]-2-(4-methoxy-7-pyrazinyl-6-azaindol-3-yl)-ethane-1,2-dione]	< 1000 nM
COc1ncc(OC)c2c(C(=O)C(=O)N3CCC(=C(C#CC(C)C)c4ccccc4)CC3)c[nH]c12 [Example 114, 1-[4-(1-Phenyl-1-(2-isopropylethyn-1-yl)-methylene)-piperidin-1-yl]-2-(4,7-dimethoxy-6-azaindol-3-yl)-ethane-1,2-dione]	< 1000 nM
